Earlier results in US10772323B2, “Benzoic acid herbicide composition” (NUFARM AUSTRALIA LIMITED, priority 2015, dated 2020).

Conditions: acid form; 25° C.

Question: For `COc1c(Cl)ccc(Cl)c1C(=O)O` [dicamba, 3,6-dichloro-2-methoxybenzoic acid], which water solubility is on record?
Answer: Its water solubility is “about 4500 mg/L”.
